What was measured:
Parameters in all cases: species or system human
[1] = Taste and smell of the compounds alone
Description: (§1) A sucrose solution (4%) was prepared in water. Each of ligustrosidic acid and 2′-hydroxy ligustrosidic acid solutions of different concentrations was prepared in ethanol solution in water (50%). Ligustrosidic acid and 2′-hydroxy ligustrosidic acid were evaluated at 1 and 200 ppm, respectively.

[2] = Enhancement of Luo Han Guo sweetness (flavor profile); conditions: Luo Han Guo solution (120 ppm), all levels tested
Source text: (§2) The term “sweetness” or “sweetness intensity” is understood to mean the relative strength of sweet sensation as observed or experienced by an individual, e.g., a human, or a degree or amount of sweetness detected by a taster, for example on the scale from 0 (none) to 8 (very strong) used in sensory evaluations according to the procedure described in American Society for Testing Materials, Special Technical Publication-434: “Manual on Sensory Testing Methods,” ASTM International, West Conshohocken, Pa. (1996).
A Luo Han Guo (Biovittoria Ltd., New Zealand) solution was prepared in water (120 ppm). Ligustrosidic acid and 2′-hydroxy ligustrosidic acid solutions were prepared as above (EXAMPLE II). The flavor profile of the Luo Han Guo solution with added ligustrosidic acid and 2′-hydroxy ligustrosidic acid is reported in the following:
(§3) Solutions of sucrose (4%) and Luo Han Guo (120 ppm) were prepared as above (EXAMPLE II and III). In addition, solutions of fructose (3.4%), Reb A (GLG Life Tech Corporation, Canada) (90 ppm) and GSG (Glucosyl Steviol Glucosides, GLG Life Tech Corporation, Canada) (200 ppm) were also prepared in water.
The Luo Han Guo solution (120 ppm) with the addition of various amount of Carica papaya leave extract was evaluated.

[3] = Enhancement of sucrose sweetness (flavor profile of sucrose solution with added substance); conditions: sucrose solution (4%), all levels tested
Source text: as §2, §1
The flavor profile of the sucrose solution with added ligustrosidic acid and 2′-hydroxy ligustrosidic acid is reported in the following:
as §3
The sucrose solution (4%) with the addition of various amount of Carica papaya leave extract was evaluated.

| SMILES | Taste and smell of the compound alone ([1]; evaluated at 200 ppm) | Overall effect on Luo Han Guo sweetness (summary in words) [2] | Overall effect on sucrose sweetness (summary in words) [3] | Taste and smell of the compound alone ([1]; evaluated at 1 ppm) | Overall effect on Luo Han Guo sweetness (summary in words) ([2]; listed as Ligustrosidic acid) | Overall effect on Luo Han Guo sweetness (summary in words) ([2]; listed as ligustrosidic acid) | Overall effect on sucrose sweetness (summary in words) ([3]; listed as Ligustrosidic acid) | Overall effect on sucrose sweetness (summary in words) ([3]; listed as ligustrosidic acid) |
| --- | --- | --- | --- | --- | --- | --- | --- | --- |
| COC(=O)C1=COC(OC2OC(CO)C(O)C(O)C2O)/C(=C\C(=O)O)C1CC(=O)OCCc1ccc(O)c(O)c1 (centres unmarked) [2′-Hydroxy Ligustrosidic Acid, 2′-hydroxy ligustrosidic acid] | devoid of taste and smell | strong effect in sweetness enhancement | strong effect in sweetness enhancement |  |  |  |  |  |
| COC(=O)C1=COC(OC2OC(CO)C(O)C(O)C2O)C(=CC(=O)O)C1CC(=O)OCCc1ccc(O)cc1 (stereo in doubt) [Ligustrosidic Acid, [3-(carboxymethylene)-2-(β-D-glucopyranosyloxy)-3,4-dihydro-5-(methoxycarbonyl)]-2H-pyran-4-acetic acid-α-[2-(4-hydroxyphenyl)ethyl]ester] |  |  |  | devoid of taste and smell | particularly strong effect | enhanced overall sweetness, body and mouthfeel | particularly strong effect | enhanced overall sweetness, body and mouthfeel |
